Data taken from patent US20210045986A1, “COMPOSITION FOR PREVENTION OR TREATMENT OF SKIN INFECTION” (CARESIDE CO., LTD., priority 2018, published 2021).

Assay: Precipitate generation prevention experiment of liquid formulation under accelerated storage
Format: physicochemical
Design: key: O: Generated; X: Non-Generated
Settings: for Whether or not a precipitate is generated: 1.0% malic acid, 0.3% sodium borate; for Result: whether or not a precipitate is generated: chlorhexidine gluconate 0.1, terbinafine hydrochloride 0.1, ethanol 59 wt %
From the text: As described above, most liquid medicines include excipients including chloride ions, and the composition of the present invention in combination with terbinafine hydrochloride may also cause precipitation. However, it may further include malic acid and sodium borate to prevent the generation of precipitates of terbinafine hydrochloride. Hereinafter, a description will be given of the precipitate generation experiments of terbinafine hydrochloride.
First, a liquid formulation containing terbinafine hydrochloride, chlorhexidine gluconate and ciclopirox olamine is prepared as shown in the following [Table 3]. Malic acid or polycarboxylic acid other than malic acid is added to the prepared liquid formulation, and the presence or absence of a precipitate is observed.
First, malic acid, citric acid, oxalic acid and tartaric acid are prepared as a polycarboxylic acid such as malic acid. To the liquid formulation prepared in the above [Table 3], polycarboxylic acid was added in 0.1, 0.3, 0.5, 0.7, 1.0, 2.0, 3.0, 4.0, 5.0 (w/v %), respectively, and then chlorhexidine gluconate is adjusted to a stable pH of 5.0 using a pH adjusting agent. And, the liquid formulations were stored under accelerated conditions of 40±2° C. and relative humidity of 75±5% to observe the presence or absence of precipitates. […]
Next, after adding 1.0% of malic acid and 0.3% of sodium borate, an experiment is performed to determine whether precipitates are generated by adjusting the content of chlorhexidine gluconate, terbinafine hydrochloride, and ciclopirox olamine. The experimental results are shown in the following [Table 6] and [Table 7], and experiments were performed on whether or not precipitates of the liquid formulations prepared without adding malic acid and sodium borate are generated were shown in [Table 8].

[1] = concentration of the ingredient 0.1 %
[2] = concentration of the ingredient 0.3 %
[3] = concentration of the ingredient 0.5 %
[4] = concentration of the ingredient 1.0 %
[5] = concentration of the ingredient 2.0 %
[6] = concentration of the ingredient 3.0 %
[7] = concentration of the ingredient 4.0 %
[8] = concentration of the ingredient 5.0 %
[9] = concentration of the ingredient 6.0 %

Structure (SMILES)	Whether or not a precipitate is generated [1]	Whether or not a precipitate is generated [2]	Whether or not a precipitate is generated [3]	Whether or not a precipitate is generated [4]	Whether or not a precipitate is generated [5]	Whether or not a precipitate is generated [6]	Whether or not a precipitate is generated [7]	Whether or not a precipitate is generated [8]	Whether or not a precipitate is generated [9]	also measured
N=C(NCCCCCCNC(=N)NC(=N)Nc1ccc(Cl)cc1)NC(=N)Nc1ccc(Cl)cc1 [Chlorhexidine Gluconate, chlorhexidine gluconate]	X	X	X	X	X	X	X	O	O	
Cc1cc(C2CCCCC2)n(O)c(=O)c1 [Ciclopirox Olamine, 2(1H)-Pyridinone, 6-cyclohexyl-1-hydroxy-4-methyl-compound with 2-aminoethanol (1:1)]										Result: whether or not a precipitate is generated (ciclopirox olamine 0.1 wt %, malic acid and sodium borate, pH 5.3~5.7): X; Result: whether or not a precipitate is generated (ciclopirox olamine 0.1 wt %, without malic acid and sodium borate, pH adjustment x): O; Result: whether or not a precipitate is generated (ciclopirox olamine 0.2 wt %, without malic acid and sodium borate, pH adjustment x): O; Result: whether or not a precipitate is generated (ciclopirox olamine 0.3 wt %, malic acid and sodium borate, pH 5.3~5.7): X; Result: whether or not a precipitate is generated (ciclopirox olamine 0.3 wt %, without malic acid and sodium borate, pH adjustment x): O; Result: whether or not a precipitate is generated (ciclopirox olamine 0.4 wt %, without malic acid and sodium borate, pH adjustment x): O; Result: whether or not a precipitate is generated (ciclopirox olamine 0.5 wt %, malic acid and sodium borate, pH 5.3~5.7): X; Result: whether or not a precipitate is generated (ciclopirox olamine 0.5 wt %, without malic acid and sodium borate, pH adjustment x): O; Result: whether or not a precipitate is generated (ciclopirox olamine 0.6 wt %, without malic acid and sodium borate, pH adjustment x): O; Result: whether or not a precipitate is generated (ciclopirox olamine 0.7 wt %, without malic acid and sodium borate, pH adjustment x): O; Result: whether or not a precipitate is generated (ciclopirox olamine 0.8 wt %, without malic acid and sodium borate, pH adjustment x): O; Result: whether or not a precipitate is generated (ciclopirox olamine 0.9 wt %, without malic acid and sodium borate, pH adjustment x): O; Result: whether or not a precipitate is generated (ciclopirox olamine 1.0 wt %, malic acid and sodium borate, pH 5.3~5.7): X; Result: whether or not a precipitate is generated (ciclopirox olamine 2.0 wt %, malic acid and sodium borate, pH 5.3~5.7): X; Result: whether or not a precipitate is generated (ciclopirox olamine 3.0 wt %, malic acid and sodium borate, pH 5.3~5.7): X; Result: whether or not a precipitate is generated (ciclopirox olamine 4.0 wt %, malic acid and sodium borate, pH 5.3~5.7): X; Result: whether or not a precipitate is generated (ciclopirox olamine 5.0 wt %, malic acid and sodium borate, pH 5.3~5.7): X; Result: whether or not a precipitate is generated (ciclopirox olamine 6.0 wt %, malic acid and sodium borate, pH 5.3~5.7): X
CN(C/C=C/C#CC(C)(C)C)Cc1cccc2ccccc12.Cl [Terbinafine hydrochloride, [(2E)-6,6-dimethylhept-2-en-4-yn-1-yl] (methyl) (naphthalen-1-ylmethyl)aminehydrochloride]	X	X	X	X	X	O	O	O	O	
